Results taken from patent US9695155B2, “Herbicidal substituted pyrimidinyloxy benzene compounds” (E. I. DU PONT DE NEMOURS AND COMPANY, priority 2013, dated 2017).

Key:
pigweed = assay: Test D preemergence; type: in vivo, Amaranthus retroflexus
How it was run: (§1)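 After treatment, visual injury versus untreated plants, 0–100 scale, assessed at 7 to 21 days. Applications were made preemergence to silt loam-sown seed and postemergence to seedlings 2–18 cm high in potting medium.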

galium = assay: Test D preemergence; type: in vivo, Galium aparine
How it was run: as §1

oilseed rape = assay: Test D postemergence; type: in vivo, Brassica napus
How it was run: as §1

winter barley = assay: Test D preemergence; type: in vivo, Hordeum vulgare
How it was run: as §1

spring barley = assay: Test D preemergence; type: in vivo, Hordeum vulgare
How it was run: as §1

field poppy [1] = assay: Test D postemergence; type: in vivo, Papaver rhoeas
How it was run: as §1

canarygrass = assay: Test D postemergence; type: in vivo, Phalaris minor
How it was run: as §1

field poppy [2] = assay: Test D preemergence; type: in vivo, Papaver rhoeas
How it was run: as §1

windgrass = assay: Test D postemergence; type: in vivo, Apera spica-venti
How it was run: as §1

[3] = 31 g ai/ha, scale 0 (no effect) to 100 (complete control)
[4] = 62 g ai/ha, scale 0 to 100 (0 no effect, 100 complete control)
[5] = 125 g ai/ha, scale 0 to 100 (0 no effect, 100 complete control)
[6] = 250 g ai/ha, scale 0 to 100 (0 no effect, 100 complete control)

N#Cc1cccc(Oc2ncc(Cl)cn2)c1-n1cc(-n2ccc(C(F)(F)F)n2)cn1 [Compound 284]
Plant response rating, Pigweed (pigweed; [3]): 75 | Plant response rating, Pigweed (pigweed; 125 g ai/ha, scale 0-100): 100 | Plant response rating, Pigweed (pigweed; 250 g ai/ha, scale 0-100): 100 | Plant response rating, Galium (galium; [3]): 20 | Plant response rating, Galium (galium; 62 g ai/ha, scale 0-100): 20 | Plant response rating, Galium (galium; 125 g ai/ha, scale 0-100): 20 | Plant response rating, Galium (galium; 250 g ai/ha, scale 0-100): 25 | Plant response rating, Oilseed Rape (oilseed rape; 31 g ai/ha, scale 0-100): 65 | Plant response rating, Oilseed Rape (oilseed rape; [4]): 70 | Plant response rating, Oilseed Rape (oilseed rape; [5]): 100 | Plant response rating, Oilseed Rape (oilseed rape; [6]): 100 | Plant response rating, Barley, Winter (winter barley; [3]): 0 | Plant response rating, Barley, Winter (winter barley; 62 g ai/ha, scale 0-100): 0 | Plant response rating, Barley, Winter (winter barley; 125 g ai/ha, scale 0-100): 15 | Plant response rating, Barley, Winter (winter barley; 250 g ai/ha, scale 0-100): 20 | Plant response rating, Barley, Spring (spring barley; [3]): 10 | Plant response rating, Barley, Spring (spring barley; 62 g ai/ha, scale 0-100): 15 | Plant response rating, Barley, Spring (spring barley; 125 g ai/ha, scale 0-100): 25 | Plant response rating, Barley, Spring (spring barley; 250 g ai/ha, scale 0-100): 35 | Plant response rating, Field Poppy (field poppy [1]; 31 g ai/ha, scale 0-100): 65 | Plant response rating, Field Poppy (field poppy [1]; [4]): 70 | Plant response rating, Field Poppy (field poppy [1]; [5]): 100 | Plant response rating, Field Poppy (field poppy [1]; [6]): 100 | Plant response rating, Canarygrass (canarygrass; 31 g ai/ha, scale 0-100): 20 | Plant response rating, Canarygrass (canarygrass; [4]): 20 | Plant response rating, Canarygrass (canarygrass; [5]): 25 | Plant response rating, Canarygrass (canarygrass; [6]): 25 | Plant response rating, Field Poppy (field poppy [2]; [3]): 100 | Plant response rating, Field Poppy (field poppy [2]; 62 g ai/ha, scale 0-100): 100 | Plant response rating, Field Poppy (field poppy [2]; 125 g ai/ha, scale 0-100): 100 | Plant response rating, Field Poppy (field poppy [2]; 250 g ai/ha, scale 0-100): 100 | Plant response rating, Windgrass (windgrass; 31 g ai/ha, scale 0-100): 20 | Plant response rating, Windgrass (windgrass; [4]): 20 | Plant response rating, Windgrass (windgrass; [5]): 30 | Plant response rating, Windgrass (windgrass; [6]): 30
